The source of these data is patent US7279582B2, “Retroviral protease inhibiting compounds” (priority 1995, dated 2007).

Series [1] has as its target HIV protease (Human immunodeficiency virus type 1 group M subtype B, UniProt P04585). The series can be described thus: Fluorogenic assay for screening inhibitors of HIV protease. Format: biochemical. To be noted: Inhibitor Concentration 0.5 nanomolar. The procedure:
Fluorogenic Assay for Screening Inhibitors of HIV Protease
The inhibitory potency of the compound of the invention can be determined by the following method.
The compound of the invention is dissolved in DMSO and a small aliquot further diluted with DMSO to 100 times the final concentration desired for testing. The reaction is carried out in a 6×50 mm tube in a total volume of 300 microliters. The final concentrations of the components in the reaction buffer are: 125 mM sodium acetate, 1 M sodium chloride, 5 mM dithiothreitol, 0.5 mg/ml bovine serum albumin, 1.3 μM fluorogenic substrate, 2% (v/v) dimethylsulfoxide, pH 4.5. After addition of inhibitor, the reaction mixture is placed in the fluorometer cell holder and incubated at 30° C. for several minutes. The reaction is initiated by the addition of a small aliquot of cold HIV protease. The fluorescence intensity (excitation 340 nm, emmision 490 nM) is recorded as a function of time. The reaction rate is determined for the first six to eight minutes. The observed rate is directly proportional to the moles of substrate cleaved-per unit time. The percent inhibition is 100×(1−(rate in presence of inhibitor)/(rate in absence of inhibitor)).
Fluorogenic substrate: Dabcyl-Gaba-Ser-Gln-Asn-Tyr-Pro-lle-Val-Gln-EDANS wherein DABCYL=4-(4-dimethylamino-phenyl)azobenzoic acid, Gaba=γ-aminobutyric acid, and EDANS=5-((2-aminoethyl)amino)-naphthalene-1-sulfonic acid.

Series [2] has as its system HIVIIIB. Nature of the series: Anti-HIV activity in MT4 cells infected with HIVIIIB (MTT readout). In kind it is cell-based. The conditions noted are these: 0% plasma, 5 days, n=4 duplicate determinations. An excerpt: (§1) The anti-HIV activity of the compound of the invention can be determined in MT4 cells according to the following procedure. MT4 cells were infected with cell-free supernatant of HIVIIIB (previously frozen with known 50% tissue culture infectious dose (TCID50) at 0.003 multiplicity of infection (MOI) for one hour. After one hour infection, cells were washed twice to remove residual viruses, resuspended in culture media and seeded into 96-well tissue culture plates at 1×10^4 cells per well with various half-log dilutions of compounds. Uninfected cells are included as toxicity and cell controls. RPMI 1640 media (Gibco) with 10% fetal bovine serum were used as culture media. Various concentrations of human serum (Sigma) 50%, 25% and 12.5% were added to culture media resulting in final concentration of 60%, 35% and 22.5% total serum. All assay plates were incubated in 37 deg. cent. incubator for 5 days. MTT (sigma, 5 mg/ml stock in PBS) was added to all wells at 25 ul per well, incubate for 4 hours. 20% SDS with 0.02 N HCI in water was added at 50 ul per well to lyse cells. Plates incubated overnight for complete lyses were read on a microtitre plate reader at 570/650 nm wavelengths to determine cell optical density (O.D.). Raw data were analysed for percent inhibition by the following formula: O.D. test well−O.D. virus control×100 O.D. cell control−O.D. virus control The 50% effective concentration (EC50) was calculated by the median effect equation (Chou, 1975, Proc. Int. Cong. Pharmacol. 6th p. 619) to determine the efficacy of compound. The 50% lethal concentration (LC50) was calculated using uninfected MT4 cells.
(§2) Under these conditions, the following data were obtained (n=4 duplicate determinations: […]

For series [3], the system named is uninfected MT4 cells. Format: cell-based. The conditions noted are these: n=4 duplicate determinations, read-out: LC50 (the source's name).
Excerpt: as §1, §2

A value given as a limit tells only on which side of the number the result lay.

In the case of `Cc1cccc(C)c1OCC(=O)N[C@@H](Cc1ccccc1)[C@@H](O)C[C@H](NC(=O)[C@H](C(C)C)N1CCC(=O)NC1=O)C(C)C` [Example 28, (2S,3S,5S)-2-(2,6-Dimethylphenoxyacetyl)amino-3-hydroxy-5-[2S-(1-tetrahydro-pyrimid-2,4-dionyl)-3-methylbutanoyl]amino-1-phenyl-6-methylheptane], the “Percent Inhibition” value in series [1] turned out to be 86.6%. The IC50 in series [2] turned out to be 0.011 µM. Moreover, the CC50 in series [3] came to 72200 nM.

Consider `Cc1cccc(C)c1OCC(=O)N[C@@H](Cc1ccccc1)[C@@H](O)C[C@H](Cc1ccccc1)NC(=O)[C@H](C(C)C)N1CCOC1=O` [Example 3C, (2S,3S,5S)-2-(2,6-Dimethylphenoxyacetyl)amino-3-hydroxy-5-[2S-(3-oxazolidin-2-onyl)-3-methyl-butanoyl]amino-1,6-diphenylhexane], for which, in series [1], the “Percent Inhibition” value is given as 86.9%. The same compound registered an IC50 in series [2] of 0.025 µM. Moreover, the CC50 in series [3] was found to be 49500 nM.

Regarding `CC(C)[C@@H](C(=O)N[C@@H](Cc1ccccc1)C[C@H](O)[C@H](Cc1ccccc1)NC(=O)O[C@H]1CO[C@H]2OCC[C@H]21)N1CCN(C)C1=O` [Example 4F, (2S,3S,5S)-2-[(3R, 3aS, 6aR)-Bis-tetrahydrofuranyloxy]amino-3-hydroxy-5-[2S-(3-methyl-1-imidazolidin-2-onyl)-3-methylbutanoyl]amino-1,6-diphenylhexane], in series [1], the “Percent Inhibition” value was determined as 49.7%. In series [2], half-maximal inhibition (IC50) required 0.101 µM. For the same compound, the CC50 in series [3] was over 100000 nM.

For the compound `Cc1cc(C)c(OCC(=O)N[C@@H](Cc2ccccc2)[C@@H](O)C[C@H](Cc2ccccc2)NC(=O)[C@H](C(C)C)N2CCNC2=O)c(C)c1` [Example 11B, (2S,3S,5S)-2-(2,4,6-Trimethylphenoxyacetyl)amino-3-hydroxy-5-(2S-(1-imidazolidin-2-onyl)-3-methylbutanoyl)amino-1,6-diphenylhexane], the “Percent Inhibition” value in series [1] was 91.1%. Further, the 50% inhibitory concentration (IC50) in series [2] worked out at 0.19 µM. The CC50 in series [3] was found to be 18200 nM.

As for `Cc1cccc(C)c1OCC(=O)N[C@@H](Cc1ccccc1)[C@@H](O)C[C@H](Cc1ccccc1)NC(=O)[C@H](C(C)C)N1CCNNC1=O` [Example 26H, (2S,3S,5S)-2-(2,6-Dimethylphenoxyacetyl)amino-3-hydroxy-5[2S-(4-aza-1-tetrahydro-pyrimid-2-onyl)-3-methyl-butanoyl]amino-1,6-diphenylhexane], the “Percent Inhibition” value in series [1] was 94.6%. In series [2], this compound returned an IC50 of 0.015 µM. In series [3], the CC50 amounted to 33000 nM.

In the case of `CC(C)[C@@H](C(=O)N[C@@H](Cc1ccccc1)C[C@H](O)[C@H](Cc1ccccc1)NC(=O)O[C@H]1CO[C@H]2OCC[C@H]21)N1CCNC1=O` [Example 5, (2S,3S,5S)-2-[(3R,3aS,6aR)-Bis-tetrahydrofuranyloxy]amino-3-hydroxy-5-[2S-(1-imidazolidin-2-onyl)-3-methylbutanoyl]amino-1,6-diphenylhexane], the “Percent Inhibition” value in series [1] stood at 80.8%. The compound also came in with an IC50 in series [2] of 0.368 µM. The CC50 in series [3] is over 100000 nM.

For `Cc1cccc(C)c1OCC(=O)N[C@@H](Cc1ccccc1)[C@@H](O)C[C@H](Cc1ccccc1)NC(=O)[C@H](C(C)C)N1CCCC1=O` [Example 17C, (2S,3S,5S)-2-(2,6-Dimethylphenoxyacetyl)amino-3-hydroxy-5-(2S-(1-pyrrolidin-2-onyl)-3-methyl-butanoyl)amino-1,6-diphenylhexane], the “Percent Inhibition” value in series [1] was determined as 87.2%. Also, in series [2], 0.051 µM corresponded to half-maximal inhibition (IC50). The CC50 in series [3] turned out to be 19000 nM.

On to `Cc1cccc(C)c1OCC(=O)N[C@@H](Cc1ccccc1)[C@@H](O)C[C@H](Cc1ccccc1)NC(=O)[C@H](C(C)C)N1CCC(=O)NC1=O` [Example 25E, (2S,3S,5S)-2-(2,6-Dimethylphenoxyacetyl)amino-3-hydroxy-5-[2S-(1-tetrahydro-pyrimid-2,4-dionyl)-3-methylbutanoyl]amino-1,6-diphenylhexane], for which the “Percent Inhibition” value in series [1] was 100%. Besides, the IC50 in series [2] stood at 0.012 µM. In series [3], the CC50 is 22900 nM.
